Data on 15 molecules can be found in article PMC11187573, “Identification of SARS-CoV-2 Mpro inhibitors through deep reinforcement learning for de novo drug design and computational chemistry approaches” (RSC Medicinal Chemistry, 2024).

Molecules are shown by their SMILES.

Assay [1] deals with recombinant SARS-CoV-2 main protease Mpro (Severe acute respiratory syndrome coronavirus 2, UniProt P0DTC1). In words: FRET-based Mpro proteolytic activity assay. Format: biochemical. The settings on record: for IC50: Mpro FRET (1 μM DTT).
For another assay, the system named is Mpro. The conditions noted are these: ML dataset, Origin COVID_Moonshot; ref COVID Moonshot; cited from earlier work.
Assay [2] has as its system SARS, SARS-CoV-2 and MERS Mpro. The settings on record: Origin COVID_Moonshot; ref COVID Moonshot; cited from earlier work.
Assay [3] relates to SARS-CoV-2 main protease. The settings on record: cited from earlier work; for IC50: Docking_validation.csv, ref COVID Moonshot, read-out: f_avg_IC50; for f_avg_pIC50: Covid_Moonshot_activity_data.csv, ref COVID Moonshot (covid.postera.ai).
Assay [4] relates to SARS-CoV-2 main protease. Format: biochemical. The settings on record: Docking validation set, class assigned from COVID Moonshot IC50.

Take `Cc1cncc(CC(=O)N2CCC[C@H]2c2cccc(Cl)c2)c1` [Compound 7, (S)-1-(2-(3-chlorophenyl)pyrrolidin-1-yl)-2-(5-methylpyridin-3-yl)ethan-1-one]: in assay [1], the IC50 came to 5600 nM.

Turning to `Cc1cncc(CC(=O)N2CCc3cc(Cl)c(Cl)cc3C2)c1` [Compound 12, 1-(6,7-dichloro-3,4-dihydroisoquinolin-2(1H)-yl)-2-(5-methylpyridin-3-yl)ethan-1-one], in assay [1], the IC50 was determined as 2300 nM. In addition, the “fold improvement of Mpro FRET IC50 after first round of optimization” value in assay [1] (relative to the parent hit (compound 8 or 10)) was found to be 27 fold.

As for `CCn1cncc1NC(=O)C1c2cc(Cl)cc(Cl)c2OCC1C` (stereo not drawn) [Compound 21, 6,8-dichloro-N-(1-ethyl-1H-imidazol-5-yl)-3-methylchromane-4-carboxamide], the IC50 in assay [1] came to 66900 nM.

Consider `O=S(=O)(Cc1ccccc1F)c1oc(-c2ccc(F)cc2)nc1S(=O)(=O)c1ccccc1` [LON-WEI-4d77710c-2, O=S(=O)(Cc1ccccc1F)c1oc(-c2ccc(F)cc2)nc1S(=O)(=O)c1ccccc1], for which the IC50 is 248 nM with Mpro, 397 nM in assay [2] and 397 nM in the assay with SARS-CoV-2 main protease [3].

In the case of `CCOC(=O)c1c(C)n(S(C)(=O)=O)c2ccc(N(C(=O)c3ccco3)S(C)(=O)=O)cc12` [LON-WEI-4d77710c-8, CCOC(=O)c1c(C)n(S(C)(=O)=O)c2ccc(N(C(=O)c3ccco3)S(C)(=O)=O)cc12], the values for the IC50 (with Mpro; in assay [2]; with SARS-CoV-2 main protease [3]) were 214 nM, 282 nM and 282 nM, respectively.

For the molecule `O=C(Nc1cccc(C(F)(F)F)c1)Nc1ccccc1Sc1ncc([N+](=O)[O-])s1` [LON-WEI-4d77710c-69, O=C(Nc1cccc(C(F)(F)F)c1)Nc1ccccc1Sc1ncc([N+](=O)[O-])s1], the IC50 in the assay on SARS-CoV-2 main protease [3] is 6260 nM.

Take `N#Cc1cnn(C(=O)c2cccs2)c1C1CC1` [LON-WEI-4d77710c-70, N#Cc1cnn(C(=O)c2cccs2)c1C1CC1]: the values for the IC50 (in the assay on Mpro; in assay [2]; with SARS-CoV-2 main protease [3]) were 1800 nM, 3240 nM and 3240 nM, respectively.

`c1ccc(-c2cc(Sc3nnc(-c4cccs4)o3)n3ncnc3n2)cc1` [LON-WEI-4d77710c-76, c1ccc(-c2cc(Sc3nnc(-c4cccs4)o3)n3ncnc3n2)cc1]: the IC50 was 187 nM in the assay on Mpro, 221 nM in assay [2] and 221 nM in the assay with SARS-CoV-2 main protease [3].

On to `O=C(Nc1cncc2ccccc12)C1=CCCc2ccc(Cl)cc21` [MAT-POS-0c8fa4a7-1, O=C(Nc1cncc2ccccc12)C1=CCCc2ccc(Cl)cc21], for which the IC50 in the assay with Mpro was 157 nM; in assay [2], 233 nM; in the assay with SARS-CoV-2 main protease [3], 233 nM.

On to `COc1ccc(Cl)cc1OCCNC(=O)c1cc(=O)[nH]c2cccc(OC)c12` [MAT-POS-3b536971-1, COc1ccc(Cl)cc1OCCNC(=O)c1cc(=O)[nH]c2cccc(OC)c12], for which the IC50 (in assay [2]; in the assay with SARS-CoV-2 main protease [3]) was 874 nM in each case.

`O=C(NCC1(C(=O)Nc2cncc3ccccc23)CCOc2ccc(Cl)cc21)C1COCCN1CC(F)(F)F` (stereo not drawn) [MAT-POS-932d1078-1, O=C(NCC1(C(=O)Nc2cncc3ccccc23)CCOc2ccc(Cl)cc21)C1COCCN1CC(F)(F)F]: the f_avg_pIC50 in the assay on SARS-CoV-2 main protease [3] was 4.666.

Take `COC[C@]1(C(=O)Nc2cncc3ccccc23)CCOc2cc(Cl)c(Cl)cc21` [MAT-POS-932d1078-4, COC[C@]1(C(=O)Nc2cncc3ccccc23)CCOc2cc(Cl)c(Cl)cc21]: in the assay on SARS-CoV-2 main protease [3], the f_avg_pIC50 is 5.492.

As for `COC[C@@]1(C(=O)Nc2cncc3ccccc23)CCOc2cc(Cl)c(Cl)cc21` [MAT-POS-932d1078-5, COC[C@@]1(C(=O)Nc2cncc3ccccc23)CCOc2cc(Cl)c(Cl)cc21], the f_avg_pIC50 with SARS-CoV-2 main protease [3] is given as 4.772.

Turning to `O=C1CC(Oc2cc(Cl)cc(CC(=O)Nn3cnc4ccccc43)c2)N1` (stereo not drawn) [MAT-POS-c478e61b-1, O=C1CC(Oc2cc(Cl)cc(CC(=O)Nn3cnc4ccccc43)c2)N1], the IC50 is 90600 nM in the assay on Mpro and 82100 nM in the assay on SARS-CoV-2 main protease [3]. The “label (active / inactive)” value with SARS-CoV-2 main protease [4] was “inactive”.

As for `O=C(Nc1cncc2ccccc12)C1COc2ccc(Cl)cc21` (stereo not drawn) [MAT-POS-f7918075-2, O=C(Nc1cncc2ccccc12)C1COc2ccc(Cl)cc21], the IC50 in assay [2] is 2600 nM; with SARS-CoV-2 main protease [3], 764 nM.
